Experimental data from patent US20060198907A1, “Pharmaceutical, therapeutic, and dietary compositions derived from Lagerstroemia speciosa L. plant” (priority 2004, published 2006).

Molecular target: xanthine oxidase (Homo sapiens, UniProt P47989)
Test: Inhibition of xanthine oxidase activity
Assay type: biochemical
Conditions: observed by the inventors, in words

Sequence of xanthine oxidase (P47989 whole entry, species assumed): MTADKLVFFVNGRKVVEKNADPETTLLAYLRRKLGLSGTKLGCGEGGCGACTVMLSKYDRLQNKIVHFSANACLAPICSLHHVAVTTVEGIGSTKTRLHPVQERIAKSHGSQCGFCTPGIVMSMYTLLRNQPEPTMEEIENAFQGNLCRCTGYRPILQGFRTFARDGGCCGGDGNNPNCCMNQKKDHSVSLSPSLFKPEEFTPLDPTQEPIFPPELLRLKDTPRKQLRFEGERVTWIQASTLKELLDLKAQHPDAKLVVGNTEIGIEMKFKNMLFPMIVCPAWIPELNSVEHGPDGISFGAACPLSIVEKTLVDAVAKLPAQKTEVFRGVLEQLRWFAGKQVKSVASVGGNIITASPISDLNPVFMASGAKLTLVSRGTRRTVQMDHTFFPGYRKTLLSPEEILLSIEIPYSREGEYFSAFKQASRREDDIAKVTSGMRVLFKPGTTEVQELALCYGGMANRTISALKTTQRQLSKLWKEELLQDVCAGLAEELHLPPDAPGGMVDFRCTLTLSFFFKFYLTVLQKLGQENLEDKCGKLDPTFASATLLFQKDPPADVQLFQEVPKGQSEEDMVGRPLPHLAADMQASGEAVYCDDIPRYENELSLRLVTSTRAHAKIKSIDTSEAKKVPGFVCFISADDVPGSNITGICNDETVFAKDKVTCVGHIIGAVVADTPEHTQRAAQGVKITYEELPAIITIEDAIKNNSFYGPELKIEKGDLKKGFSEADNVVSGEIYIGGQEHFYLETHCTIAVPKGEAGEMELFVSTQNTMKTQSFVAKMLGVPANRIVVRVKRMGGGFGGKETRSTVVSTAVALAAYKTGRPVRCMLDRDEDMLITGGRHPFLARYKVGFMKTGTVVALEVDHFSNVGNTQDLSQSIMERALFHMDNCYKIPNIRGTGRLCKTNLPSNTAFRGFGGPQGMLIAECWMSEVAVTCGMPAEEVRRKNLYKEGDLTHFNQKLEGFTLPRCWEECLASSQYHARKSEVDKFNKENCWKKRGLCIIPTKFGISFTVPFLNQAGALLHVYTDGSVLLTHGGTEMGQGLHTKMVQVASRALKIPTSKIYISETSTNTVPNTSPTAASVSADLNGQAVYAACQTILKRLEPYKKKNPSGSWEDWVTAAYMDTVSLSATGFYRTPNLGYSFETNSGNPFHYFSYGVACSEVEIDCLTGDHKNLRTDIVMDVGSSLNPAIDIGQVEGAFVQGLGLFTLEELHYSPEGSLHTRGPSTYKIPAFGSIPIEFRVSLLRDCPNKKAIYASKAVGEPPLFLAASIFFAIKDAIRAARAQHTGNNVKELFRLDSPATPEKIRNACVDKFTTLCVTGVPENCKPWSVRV

O=C(O)c1cc(O)c(O)c(O)c1Oc1cc2c(=O)oc3c(O)c(O)cc4c(=O)oc(c1O)c2c34 [valoneic acid dilactone]
inhibition of xanthine oxidase activity: inhibition of xanthine oxidase activity
